Data reported in the supplement of paper PMC13380429.

Key:
Conditions in all cases: 72 h
HepG2 [1] = assay: relative viability EC50 (midpoint between 100% and the lowest measured viability); higher = less toxic
Caco-2 [2] = assay: as above
U2OS [3] = assay: as above
Vero E6 [4] = assay: as above
HepG2 [5] = assay: cell viability relative to DMSO; higher = less toxic
Caco-2 [6] = assay: as above
U2OS [7] = assay: as above
Vero E6 [8] = assay: as above
HepG2 [9] = assay: drug sensitivity score (DSS) for viability; higher = more toxic; extreme values may be limits of the assay
Caco-2 [10] = assay: as above
U2OS [11] = assay: as above
Vero E6 [12] = assay: as above
Calu-3 [13] = assay: relative viability EC50 (midpoint between 100% and the lowest measured viability); higher = less toxic
Calu-3 [14] = assay: cell viability relative to DMSO; higher = less toxic
Calu-3 [15] = assay: drug sensitivity score (DSS) for viability; higher = more toxic; extreme values may be limits of the assay

| SMILES | relative viability EC50 (HepG2 [1]) [µM] | relative viability EC50 (Caco-2 [2]) [µM] | relative viability EC50 (U2OS [3]) [µM] | relative viability EC50 (Vero E6 [4]) [µM] | cell viability (HepG2 [5]; 1 nM) [%] | cell viability (HepG2 [5]; 10 nM) [%] | cell viability (HepG2 [5]; 100 nM) [%] | cell viability (HepG2 [5]; 1000 nM) [%] | cell viability (HepG2 [5]; 10000 nM) [%] | cell viability (Caco-2 [6]; 1 nM) [%] | cell viability (Caco-2 [6]; 10 nM) [%] | cell viability (Caco-2 [6]; 100 nM) [%] | cell viability (Caco-2 [6]; 1000 nM) [%] | cell viability (Caco-2 [6]; 10000 nM) [%] | cell viability (U2OS [7]; 1 nM) [%] | cell viability (U2OS [7]; 10 nM) [%] | cell viability (U2OS [7]; 100 nM) [%] | cell viability (U2OS [7]; 1000 nM) [%] | cell viability (U2OS [7]; 10000 nM) [%] | cell viability (Vero E6 [8]; 1 nM) [%] | cell viability (Vero E6 [8]; 10 nM) [%] | cell viability (Vero E6 [8]; 100 nM) [%] | cell viability (Vero E6 [8]; 1000 nM) [%] | cell viability (Vero E6 [8]; 10000 nM) [%] | drug sensitivity score (HepG2 [9]) | drug sensitivity score (Caco-2 [10]) | drug sensitivity score (U2OS [11]) | drug sensitivity score (Vero E6 [12]) | relative viability EC50 (Calu-3 [13]) [µM] | cell viability (Calu-3 [14]; 1 nM) [%] | cell viability (Calu-3 [14]; 10 nM) [%] | cell viability (Calu-3 [14]; 100 nM) [%] | cell viability (Calu-3 [14]; 1000 nM) [%] | cell viability (Calu-3 [14]; 10000 nM) [%] | drug sensitivity score (Calu-3 [15]) |
| --- | --- | --- | --- | --- | --- | --- | --- | --- | --- | --- | --- | --- | --- | --- | --- | --- | --- | --- | --- | --- | --- | --- | --- | --- | --- | --- | --- | --- | --- | --- | --- | --- | --- | --- | --- |
| CC(C)c1ccccc1S(=O)(=O)c1cc(N)c2ncccc2c1[N+](=O)[O-] | > 10 | > 10 | > 10 | > 10 | 100 | 95.8 | 100 | 89.9 | 110 | 98.7 | 102 | 99.1 | 97.3 | 89.8 | 99.7 | 102 | 96.3 | 98.5 | 93.7 | 98 | 103 | 107 | 102 | 100 | 0 | 0 | 0 | 0 |  |  |  |  |  |  |  |
| CCn1cc(-c2ccnc3[nH]c(-c4cccc(CN(C)C)c4)cc23)c(-c2ccc(NC(=O)N(C)C)cc2)n1 | 1.19 |  |  |  | 106 | 105 | 77.8 | 72.3 | 20.1 | 96.3 | 95.7 | 98 | 93.1 | 56.2 |  |  |  |  |  | 103 | 104 | 98.5 | 82 | 63.5 | 8.1 | 3.4 |  | 3.8 | > 10 | 97.8 | 110 | 81.9 | 97.7 | 81.9 | 0.6 |
| COc1cc2ncn(-c3cc(OCc4ccccc4C(F)(F)F)c(C(N)=O)s3)c2cc1OC | 0.743 |  | > 10 |  | 95.6 | 108 | 105 | 50 | 26.5 | 102 | 95.5 | 102 | 73.4 | 62.3 | 102 | 97.8 | 102 | 94.4 | 89.4 | 104 | 96 | 98.8 | 69.1 | 57.5 | 9.9 | 4.9 | 0.1 | 5.9 | > 10 | 95.9 | 101 | 95.4 | 90 | 86.1 | 0.5 |
| C[C@@H](N)c1ccc(C(=O)Nc2ccnc3[nH]ccc23)cc1 |  | > 10 |  | > 10 | 93.7 | 94.4 | 105 | 89.8 | 68.4 | 95.8 | 101 | 110 | 105 | 91.6 | 99.3 | 96.8 | 99 | 98.2 | 75 | 99.1 | 98.5 | 96.6 | 93 | 86.5 | 2.8 | 0 | 1.2 | 0.2 |  |  |  |  |  |  |  |
| Cc1c(Cn2c(C)nc3c(C(=O)O)cc(N4CCOCC4)cc32)cccc1C(F)(F)F |  | > 10 | > 10 |  |  |  |  |  |  | 102 | 97.3 | 91.2 | 93.1 | 84.9 | 95.7 | 104 | 96.2 | 99 | 91.3 | 97.2 | 101 | 93.1 | 84.4 | 58.9 |  | 0.5 | 0 | 3.6 | > 10 | 110 | 101 | 97 | 94.4 | 86 | 0.2 |
| O=C1NCCc2[nH]c(-c3ccncc3)cc21 | 0.499 | 2.48 | 2.77 | 1.9 | 91.4 | 102 | 92.4 | 33.1 | 9.5 | 96.1 | 93.6 | 94.2 | 94.9 | 38.5 | 95.2 | 104 | 93.6 | 95.3 | 5.8 | 98 | 98.2 | 98.1 | 85.7 | 13.5 | 13.6 | 4.2 | 5.9 | 7.2 |  | 94 | 94.6 | 94.6 | 79.5 | 53.6 | 4.6 |
| c1ccc(C[C@H](c2ccccc2)N2CCCCC2)cc1 (racemic) [1-(1,2-diphenylethyl)piperidine-(+/-)] | > 10 | > 10 | > 10 | > 10 | 92.9 | 103 | 96.5 | 100 | 86.8 | 91.2 | 93.9 | 101 | 100 | 103 | 104 | 93.8 | 98.7 | 98.9 | 105 | 92.6 | 97.7 | 92.2 | 97.1 | 102 | 0.1 | 0 | 0 | 0 |  |  |  |  |  |  |  |
| O=[N+]([O-])c1ccc(O)c([N+](=O)[O-])c1 [2,4-dinitrophenol] | > 10 |  | > 10 | > 10 | 100 | 89.5 | 110 | 106 | 103 | 89.3 | 96.8 | 82.7 | 98.8 | 73.4 | 96.2 | 102 | 106 | 105 | 97 | 94 | 103 | 100 | 92.9 | 99.1 | 0 | 1.8 | 0 | 0 |  |  |  |  |  |  |  |
| NCC(O)(CS(=O)(=O)O)c1ccc(Cl)cc1 (stereo not drawn) [2-hydroxysaclofen] | > 10 | > 10 | > 10 | > 10 | 101 | 98.5 | 89.4 | 90.3 | 98.8 | 98.4 | 96.2 | 91.4 | 98.6 | 96.3 | 104 | 94.8 | 94.9 | 103 | 97.4 | 100 | 98.1 | 102 | 97.2 | 97.5 | 0.3 | 0 | 0 | 0 |  |  |  |  |  |  |  |
| CCn1c(O)nnc1-c1ccc(Cl)cc1 [5-(4chlorophenyl)-4-ethyl-2,4-dihydro-3H-1,2,4-triazol-3-one] | > 10 | > 10 | > 10 | > 10 | 112 | 111 | 102 | 98.3 | 94.7 | 116 | 112 | 112 | 91.6 | 79.1 | 100 | 103 | 99.8 | 98.1 | 78.6 | 97.9 | 102 | 102 | 106 | 79.6 | 0 | 1.6 | 1 | 0.4 |  |  |  |  |  |  |  |
| CC(=O)O[C@]1(C(C)=O)CC[C@H]2[C@@H]3C=CC4=CC(=O)CC[C@]4(C)[C@H]3CC[C@@]21C [6,7-dehydro-17-acetoxy-progesterone] | > 10 | > 10 | > 10 | > 10 | 102 | 103 | 105 | 105 | 98 | 95.6 | 97.5 | 93.7 | 92.8 | 92.6 | 96.4 | 99.6 | 97.3 | 101 | 94.8 | 106 | 99.5 | 104 | 98.1 | 98.2 | 0 | 0 | 0 | 0 |  |  |  |  |  |  |  |
| COc1ccccc1N1CCN(CCCCNC(=O)c2ccc3ccccc3c2)CC1 [BP-897] |  |  |  |  |  |  |  |  |  |  |  |  |  |  |  |  |  |  |  |  |  |  |  |  | 0 |  | 0 | 0 |  |  |  |  |  |  | 0.8 |
| Cc1ccc2c(c1)Cc1c(C(=O)NC3CCCCC3)nn(-c3ccc(Cl)cc3Cl)c1-2 [GP2a] | > 10 | > 10 | > 10 | > 10 | 100 | 102 | 99 | 88.9 | 99.7 | 91.8 | 89.6 | 97.3 | 95.4 | 91.7 | 95.8 | 99.4 | 97.4 | 105 | 102 | 99.5 | 96.2 | 99.8 | 100 | 100 | 0 | 0 | 0 | 0 |  |  |  |  |  |  |  |
| Nc1ncnc2c1c(-c1ccc(Cl)cc1)nn2-c1cccc(-c2cnnn2Cc2cccc(-c3ccccc3)c2)c1 [KB-SRC-4] | > 10 | > 10 | > 10 | > 10 | 107 | 98.4 | 99.1 | 99.5 | 111 | 99.1 | 94.7 | 99.7 | 93.6 | 101 | 95.2 | 96.5 | 95.5 | 101 | 103 | 97.7 | 99.1 | 95.9 | 93.7 | 105 | 0 | 0 | 0 | 0 |  |  |  |  |  |  |  |
| CC(C)NC(=O)COc1cccc(-c2nc(Nc3ccc4[nH]ncc4c3)c3ccccc3n2)c1 [KD025] | > 10 |  | 3.29 |  | 98.7 | 96.8 | 107 | 86.8 | 94.5 | 104 | 100 | 102 | 97.8 | 70.5 | 97.2 | 103 | 97.5 | 101 | 46.5 | 105 | 99.1 | 104 | 97.3 | 72.8 | 0.8 | 1.6 | 2.7 | 1.5 | > 10 | 95.6 | 108 | 89.4 | 105 | 108 | 0 |
| COc1cc(C(=O)N2CCC(N3CCN(C)CC3)CC2)ccc1Nc1ncc2c(n1)N(C)c1ccccc1C(=O)N2C [LRRK2-IN-1] | 3.42 |  |  | 2.64 | 99.4 | 99.4 | 98.8 | 103 | 31.6 | 96 | 87.2 | 98.8 | 91.7 | 67.8 | 101 | 95.9 | 98.5 | 90.6 | 50.1 | 99.5 | 100 | 94 | 94.3 | 13.5 | 3.5 | 2.7 | 4.2 | 5.7 |  | 102 | 89.2 | 102 | 88.1 | 52.2 | 4.4 |
